From patent US20160090556A1, “PRODUCTS COMPRISING MALODOR REDUCTION MATERIALS” (The Procter & Gamble Company, priority 2014, published 2016)

test: Liquid dish neat product liquid-air partition coefficient; assay type: physicochemical; settings: not given

Row | SMILES | Log of liquid dish neat product liquid-air partition coefficient (Comment Code K/L)
1 | CC12CCC(C(=O)C1=O)C2(C)C (stereo not shown) [Material 587] | K (Log of liquid dish neat product liquid-air partition coefficient greater than or equal to −7)
2 | CC(C)C1=CCC(C)(O)CC1 (stereo not shown) [Material 982] | K (Log of liquid dish neat product liquid-air partition coefficient greater than or equal to −7)
3 | CC(=O)C=CC12OC1(C)CCCC2(C)C (stereo not shown) [Material 636] | K (Log of liquid dish neat product liquid-air partition coefficient greater than or equal to −7)
4 | C=C(C)C1CC=C(CO)CC1 (stereo not shown) [Material 948] | K (Log of liquid dish neat product liquid-air partition coefficient greater than or equal to −7)
5 | CCOCOC1CCCCCCCCCCC1 [Material 607] | K (Log of liquid dish neat product liquid-air partition coefficient greater than or equal to −7)
6 | CC(=O)c1cc2c(cc1C)C(C)(C)C(C)C2(C)C (stereo not shown) [Material 927] | K (Log of liquid dish neat product liquid-air partition coefficient greater than or equal to −7)
7 | CC1=CCCC2(C)CCC3CC12OC3(C)C (stereo not shown) [Material 726] | K (Log of liquid dish neat product liquid-air partition coefficient greater than or equal to −7)
8 | CC1=CCCC2(C)CCC(C(C)(C)O)CC12 (stereo not shown) [Material 712] | K (Log of liquid dish neat product liquid-air partition coefficient greater than or equal to −7)
9 | C=CCCCCCCCCC(=O)OCCCC [Material 599] | K (Log of liquid dish neat product liquid-air partition coefficient greater than or equal to −7)
10 | C=CCOC(=O)COCCC(C)C [Material 748] | K (Log of liquid dish neat product liquid-air partition coefficient greater than or equal to −7)
11 | C=C(C)C1CC=C(C=O)CC1 (stereo not shown) [Material 946] | K (Log of liquid dish neat product liquid-air partition coefficient greater than or equal to −7)
12 | CC(=O)OC(C)CCC=C(C)CCC=C(C)C (racemic) [Material 881] | K (Log of liquid dish neat product liquid-air partition coefficient greater than or equal to −7)
13 | CC(=CCC1CC=C(C)C1(C)C)CO (stereo not shown) [Material 1025] | K (Log of liquid dish neat product liquid-air partition coefficient greater than or equal to −7)
14 | CC1=CC[C@@H]2C3CC([C@@H]2C1)[C@@]1(C3)OC1C (stereo partly shown) [Material 1007] | K (Log of liquid dish neat product liquid-air partition coefficient greater than or equal to −7)
15 | CC1=CC2C(C(C)C)CCC(C)(O)C2CC1 (stereo not shown) [Material 716] | K (Log of liquid dish neat product liquid-air partition coefficient greater than or equal to −7)
16 | C=C(C)C1CCC2(C)CCC=C(C)C2C1 (stereo not shown) [Material 692] | K (Log of liquid dish neat product liquid-air partition coefficient greater than or equal to −7)
17 | CCCCCOC(=O)C=Cc1ccccc1 [Material 671] | K (Log of liquid dish neat product liquid-air partition coefficient greater than or equal to −7)
18 | C=CCc1ccc2c(c1)OCO2 [Material 1021] | K (Log of liquid dish neat product liquid-air partition coefficient greater than or equal to −7)
19 | CC(C)c1cccc(C(C)CC=O)c1 (stereo not shown) [Material 914] | K (Log of liquid dish neat product liquid-air partition coefficient greater than or equal to −7)
20 | CC1=CC[C@@H]2[C@@]3(C)CCCC(C)(C)[C@@H]3CC[C@@]2(C)O1 [Material 1029] | K (Log of liquid dish neat product liquid-air partition coefficient greater than or equal to −7)
21 | CC1CCC2C(C)(C)C3CC12CCC3(C)OC=O (stereo not shown) [Material 566] | K (Log of liquid dish neat product liquid-air partition coefficient greater than or equal to −7)
22 | C=CC(=C)CCC=C(C)CCC=C(C)C [Material 628] | K (Log of liquid dish neat product liquid-air partition coefficient greater than or equal to −7)
23 | CC(C)=CCCC(C)c1ccc(C)cc1 (stereo not shown) [Material 713] | K (Log of liquid dish neat product liquid-air partition coefficient greater than or equal to −7)
24 | CC1=CCC(O)(C(C)C)CC1 (stereo not shown) [Material 791] | K (Log of liquid dish neat product liquid-air partition coefficient greater than or equal to −7)
25 | CC(C)=CCC/C(C)=C/CO [Material 1082] | K (Log of liquid dish neat product liquid-air partition coefficient greater than or equal to −7)
26 | C[C@@H]1CC[C@H]2C(C)(C)[C@H]3C[C@@]12CC[C@@]3(C)O [Material 569] | K (Log of liquid dish neat product liquid-air partition coefficient greater than or equal to −7)

same assay, conditions: class code letter within Comment Code

Row | SMILES | Log of liquid dish neat product liquid-air partition coefficient (Comment Code K/L)
27 | CC1=CC(C)C2C(CCC(C)(C)C2O)C1 (stereo not shown) [Material 39] | K (Log of liquid dish neat product liquid-air partition coefficient greater than or equal to −7)
28 | CCOC(=O)C12CCCC1C1CCC2C1 (stereo not shown) [Material 344] | K (Log of liquid dish neat product liquid-air partition coefficient greater than or equal to −7)
29 | CC1=CC2(C=CC(C)O2)C(C(C)C)CC1 (stereo not shown) [Material 68] | K (Log of liquid dish neat product liquid-air partition coefficient greater than or equal to −7)
30 | C=CCCCCCCC/C=C/CC#N [Material 137] | K (Log of liquid dish neat product liquid-air partition coefficient greater than or equal to −7)
31 | CCCCCCCCCCCCOC(C)=O [Material 175] | K (Log of liquid dish neat product liquid-air partition coefficient greater than or equal to −7)
32 | CC(C)=CCC/C(C)=C\CO [Material 64] | K (Log of liquid dish neat product liquid-air partition coefficient greater than or equal to −7)
33 | CCCCCCCCCCCCCC#N [Material 38] | K (Log of liquid dish neat product liquid-air partition coefficient greater than or equal to −7)
34 | C=CCc1ccc(OC)cc1 [Material 119] | K (Log of liquid dish neat product liquid-air partition coefficient greater than or equal to −7)
35 | CC(C)c1ccc(CO)cc1 [Material 491] | K (Log of liquid dish neat product liquid-air partition coefficient greater than or equal to −7)
36 | c1ccc(CCCc2ccccn2)cc1 [Material 497] | K (Log of liquid dish neat product liquid-air partition coefficient greater than or equal to −7)
37 | CCc1ccc(CC(C)(C)C#N)cc1 [Material 361] | K (Log of liquid dish neat product liquid-air partition coefficient greater than or equal to −7)
38 | CC1OCC(c2ccccc2)O1 (stereo not shown) [Material 190] | K (Log of liquid dish neat product liquid-air partition coefficient greater than or equal to −7)

same assay, conditions: code letters K, L

Row | SMILES | Comment Code: Log of liquid dish neat product liquid-air partition coefficient
39 | CC1=CC(C)C2C(CCC(C)(C)C2O)C1 (stereo not shown) [Material 39] | K (Log of liquid dish neat product liquid-air partition coefficient greater than or equal to −7)
40 | CC(=O)c1cc2c(cc1C)C(C)(C)C(C)C2(C)C (stereo not shown) [Material 927] | K (Log of liquid dish neat product liquid-air partition coefficient greater than or equal to −7)
41 | CC1=CCCC2(C)CCC3CC12OC3(C)C (stereo not shown) [Material 726] | K (Log of liquid dish neat product liquid-air partition coefficient greater than or equal to −7)
42 | CC1=CCCC2(C)CCC(C(C)(C)O)CC12 (stereo not shown) [Material 712] | K (Log of liquid dish neat product liquid-air partition coefficient greater than or equal to −7)
43 | C=CCOCCc1ccccc1 [Material 744] | K (Log of liquid dish neat product liquid-air partition coefficient greater than or equal to −7)
44 | CC1(C)C2CCC3(C2)C1C1(CCC3(C)C)OCCO1 (stereo not shown) [Material 1144] | K (Log of liquid dish neat product liquid-air partition coefficient greater than or equal to −7)
45 | CC1=CC[C@@H]2C3CC([C@@H]2C1)[C@@]1(C3)OC1C (stereo partly shown) [Material 1007] | K (Log of liquid dish neat product liquid-air partition coefficient greater than or equal to −7)
46 | COc1cc(C)cc(O)c1 [Material 811] | K (Log of liquid dish neat product liquid-air partition coefficient greater than or equal to −7)
47 | CC1=CC[C@@H]2[C@@]3(C)CCCC(C)(C)[C@@H]3CC[C@@]2(C)O1 [Material 1029] | K (Log of liquid dish neat product liquid-air partition coefficient greater than or equal to −7)
48 | CC1CCC2C(C)(C)C3CC12CCC3(C)OC=O (stereo not shown) [Material 566] | K (Log of liquid dish neat product liquid-air partition coefficient greater than or equal to −7)
49 | CCCCCCCC(=O)OCCC(C)C [Material 237] | K (Log of liquid dish neat product liquid-air partition coefficient greater than or equal to −7)
50 | CC(C)(O)CCC1CCCCC1 [Material 496] | K (Log of liquid dish neat product liquid-air partition coefficient greater than or equal to −7)
51 | CC(=O)CCc1ccc(O)cc1 [Material 1002] | K (Log of liquid dish neat product liquid-air partition coefficient greater than or equal to −7)
52 | C=CC(C)(C#N)Cc1ccccc1 (stereo not shown) [Material 504] | K (Log of liquid dish neat product liquid-air partition coefficient greater than or equal to −7)
53 | C[C@@H]1CC[C@H]2C(C)(C)[C@H]3C[C@@]12CC[C@@]3(C)O [Material 569] | K (Log of liquid dish neat product liquid-air partition coefficient greater than or equal to −7)

same assay, conditions: codes K/L of the Comment Code, Table 1

Row | SMILES | Comment Code: Log of liquid dish neat product liquid-air partition coefficient
54 | COCc1ccc(O)c(OC)c1 [Material 1113] | K (Log of liquid dish neat product liquid-air partition coefficient greater than or equal to −7)
55 | CC1(C)C2CCC3(C2)C1C1(CCC3(C)C)OCCO1 (stereo not shown) [Material 1144] | K (Log of liquid dish neat product liquid-air partition coefficient greater than or equal to −7)
